# Key:
# Type in all cases: functional, Homo sapiens
# Set-up in all cases: dose or concentration left out as unconfirmed
# Colon cancer organoid [1] = assay: Identification of compartment-specific drug sensitivities in O20 CRC organoid-stroma F20 CAF co-cultures. Organoid is transduced with Lucferase2-P2A-EGFP lentivirus, fibroblast with Renilla-dsRed lentivirus. Dual-Glo Luciferase assay is used to report viability data.
# Colon cancer organoid [2] = assay: Identification of compartment-specific drug sensitivities in O14 CRC organoid-stroma F14 CAF co-cultures. Organoid is transduced with Lucferase2-P2A-EGFP lentivirus, fibroblast with Renilla-dsRed lentivirus. Dual-Glo Luciferase assay is used to report viability data.
# Colon cancer organoid [3] = assay: Identification of compartment-specific drug sensitivities in O06 CRC organoid-stroma F06 CAF co-cultures. Organoid is transduced with Lucferase2-P2A-EGFP lentivirus, fibroblast with Renilla-dsRed lentivirus. Dual-Glo Luciferase assay is used to report viability data.
# [4] = Transduced with Lucferase2-P2A-EGFP lentivirus
# [5] = Transduced with Renilla-dsRed lentivirus
SMILES,Cell Viability (Colon cancer organoid [1]; [4]) [%],Cell Viability (Colon cancer organoid [1]; [5]) [%],Cell Viability (Colon cancer organoid [2]; [4]) [%],Cell Viability (Colon cancer organoid [2]; [5]) [%],Cell Viability (Colon cancer organoid [3]; [4]) [%],Cell Viability (Colon cancer organoid [3]; [5]) [%]
CN(C)c1ncnc(-c2ccc3nc(Nc4cc(CN5CCN(C(=O)CC(F)(F)F)CC5)ccn4)[nH]c3c2)c1Cl [BAY-440],123.006,109.622,161.186,109.54,110.52,104.43
Cc1noc([C@H]2C[C@@H](c3ccc(C(F)(F)F)cc3)CN(C(=O)N3CCS(=O)(=O)C3)C2)n1 [BAY-448],115.252,84.5218,114.601,94.3368,64.3289,114.596
CC1=C(C#N)C(c2ccc3[nH]nc(C)c3c2)C(C#N)=C(C)N1 [BAY-474],81.7867,102.241,60.4688,119.272,116.723,162.783
CC(=O)C1=C(C)N(c2cccc(C(F)(F)F)c2)C(=O)N[C@H]1c1ccc(C#N)nc1 [BAY-677],134.265,107.791,123.312,108.035,73.3465,89.4043
CC(=O)C1=C(C)N(c2cccc(C(F)(F)F)c2)C(=O)N[C@@H]1c1ccc(C#N)nc1 [BAY-678],140.099,133.591,146.251,119.353,95.8481,136.382
Cc1nc(C2CCN(C(=O)c3ccc(OC(F)(F)F)cc3N)CC2)c2ncc(N3CCN(C)CC3)cc2n1 [BAY-693],93.6142,129.276,77.0919,74.1942,114.208,166.908
O=C(O)[C@@H]1[C@@H](Cn2nnc3ccccc3c2=O)CC[C@H]1C(=O)c1ccc(OCCC2CCOCC2)cc1 [BAY-694],92.0939,91.7477,127.223,103.773,99.0718,68.3581
O=C(NCc1ncc(C(F)(F)F)cc1Cl)c1ccc2c(c1)C1(CCS(=O)(=O)CC1)[C@@H](C1CC1)N2S(=O)(=O)c1ccc(F)cc1 [BAY-786],102.274,106.984,85.8201,92.0831,81.2723,52.1511
Cc1c(NC(=O)c2cc(C(N)=O)nc3cc(F)ccc23)c(C(F)(F)F)nn1Cc1ccc(C#N)cc1 [BAY-876],13.842,190.785,20.1463,59.1997,11.8045,337.56
CN1CCN(c2cnc3c(C4CCN(C(=O)c5ccc(OC(F)(F)F)cc5N)CC4)ncnc3c2)CC1 [BAY-885],78.4575,141.163,91.6174,96.8328,128.922,132.533
O=C(Nc1cnc(Oc2ccc(F)cc2)nc1)N1CCc2ncccc2[C@@H]1c1ccc(F)cc1 [BAY-899],151.912,104.61,105.834,99.8567,92.2798,100.101
CC1=C(C#N)C(c2ccc3c(c2)c(NC(=O)c2ccccc2C)nn3C)C(C#N)=C(C)N1 [BAY-974],105.235,128.576,92.3005,117.089,90.4588,87.5124
C[C@H](c1ccnc(Nc2nc3ccc(-c4cc(N(C)C)ncn4)cc3[nH]2)c1)N1CCN(C(=O)CC(F)(F)F)CC1 [BAY-985],129.711,125.86,130.529,136.274,137.072,142.411
NS(=O)(=O)c1cc(NC(=O)Cc2ccccc2)ccc1Oc1cccc(Cl)c1 [BAY-1797],89.0927,86.996,92.6745,115.956,89.5842,298.319
CCc1ccccc1C(=O)Nc1n[nH]c2c(C)c(F)c(C3C(C#N)=C(C)N(C)C(C)=C3C#N)cc12 [BAY-3827],74.4041,157.673,97.9341,94.3175,43.7855,108.902
Cn1cc(Cl)c2c(Oc3c(F)cc(Nc4cc(Cl)nc(N)n4)cc3F)ccnc21 [BAY-4900],91.1614,109.2,86.5863,82.0192,121.536,149.241
Cc1c(N2CCCC2)nc2ccc(Br)cc2c1C(=O)NC[C@H](CCC(=O)O)c1ccccc1Cl [BAY-6672],83.1045,119.315,108.299,92.2123,132.373,142.298
COc1ccc(Oc2cc(NCCC(F)(F)F)c3ncc(-c4ccc(C(=O)NC5CC5)c(C)c4)n3n2)c(F)c1F [BAY-1217389],10.0806,184.891,9.59,58.9964,5.893,100.303
CC(=O)N1CCC(c2ccc(C(=O)NC3=NCCN3)cc2C(F)(F)F)CC1 [BI 0054],121.714,122.015,111.388,98.4803,124.071,95.7607
CN(C)C(=O)Cn1cc(-c2nc(C3(c4ccc(-c5cnc(N)nc5)cc4)CC3)no2)cn1 [BI 0153],119.435,91.9766,127.983,104.715,137.539,73.6279
COc1ccc2c(O[C@@H]3C[C@H]4C(=O)N[C@]5(C(=O)O)CC5/C=C\CCCCC[C@H](NC(=O)OC5CCCC5)C(=O)N4C3)cc(-c3csc(NC(=O)C(C)C)n3)nc2c1C (some centres undefined) [BI 1230],95.5192,162.279,146.11,113.81,110.189,125.746
O=C(N[C@H]1CCCCC/C=C\C2C[C@@]2(C(=O)O)NC(=O)[C@@H]2C[C@@H](Oc3ccncc3)CN2C1=O)OC1CCCC1 (some centres undefined) [BI 1675],103.036,110.731,118.741,112.641,164.286,81.7525
CCOCCn1cc(C(=O)Nc2ccc(-n3nc(-c4cccnc4)cc3C(F)(F)F)cn2)ccc1=O [BI 1935],76.3275,148.205,82.3072,94.7961,87.0785,88.003
C[C@H](NC(=O)c1cnc2n1[C@](C)(Cc1ccc(C#N)cc1)C(=O)N2c1cc(Cl)c(F)c(Cl)c1)C(=O)NC1(c2ccccn2)CC1 [BI 1950],121.807,97.0159,98.1816,100.374,112.036,408.477
CC(C)(C#Cc1ccc(NC(=O)COc2ccccc2C(=O)c2ccccc2)c(Cl)c1)C(=O)O [BI 2439],147.968,100.148,66.7268,62.0838,97.1512,131.731
Cc1c(NC(=O)COc2ccc(Cl)cc2C(=O)c2cc(F)cc(C(F)(F)F)c2)ccc(C(=O)O)c1F [BI 2540],66.158,145.555,85.0828,72.3222,104.073,125.125
O=C(NC[C@@H]1[C@H]2CN(C(=O)OCc3cc(C(F)(F)F)cc(C(F)(F)F)c3)C[C@@H]12)c1ccc2[nH]nnc2c1 [BI 2545],135.058,115.933,136.863,113.582,82.8507,98.3684
Cc1nccc(COC(=O)N2C[C@@H]3[C@@H](CNC(=O)c4ccc5[nH]nnc5c4)[C@@H]3C2)n1 [BI 3017],107.028,99.2728,148.595,113.357,143.297,89.1244
Cn1nc(C(=O)NCc2ccc(C(=O)O)cc2)cc1-c1ccc2[nH]ccc2c1 [BI 4395],100.657,92.7545,88.69,99.7693,119.737,69.3241

# — ChEMBL document CHEMBL5608141, “Identification of compartment-specific drug sensitivities in CRC organoid-stroma co-cultures” (2024)
